# US10548894B2, “Combination therapy” (Array BioPharma Inc., priority 2013, dated 2020)
# What was measured:
# Format in all cases: cell-based
# [1] = tested on: COLO 205; assay: 72 hr cell titer Glo proliferation assay, BRAFV600E mutant CRC cell lines; details: Homo sapiens, COLO 205, single agent
# Method: (§1) Single agent and combinatorial effects on proliferation of inhibitors of RAF (Compound of Formula (I)) and PIK3Ca (Compound X) kinases in seven BRAF-mutant CRC-derived cell lines. All cell lines express the BRAFV600E protein. Cells harboring known or putative activating mutations in the PI3Kα gene are marked with a (*) and cells with PTEN loss marked with a (#). Cell proliferation was measured in 72 hr cell titer Glo™ assays and all results supplied are the result of at least triplicate measurements. Shown are single agent IC50 values for the Compound of Formula (I) and Compound X. Synergy score (SS) measurements as well as the combination index (C150) at the 50% effect level are given for each combination) in Table 6. Interactions were deemed synergistic when SS values were ≥2.0 and CI values were ≤0.5. Interactions were deemed additive/synergistic when either SS values were ≥2.0 but CI values were >0.5 or SS values were <2.0 but CI values were ≤0.5. Interactions where termed additive when SS values were <2.0 and CI values were >0.5. Synergy calls are given in the “effect description” columns.
# [2] = tested on: SW1417; assay: as above; details: Homo sapiens, SW1417, single agent
# Method: as §1
# [3] = tested on: HT-29; assay: as above; details: Homo sapiens, HT-29 (PI3Kα mutation), single agent
# Method: as §1
# [4] = tested on: CL-34; assay: as above; details: CL-34, single agent
# Method: as §1
# [5] = tested on: SNU-C5; assay: as above; details: SNU-C5 (PI3Kα mutation), single agent
# Method: as §1
# [6] = tested on: RKO; assay: as above; details: Homo sapiens, RKO (PI3Kα mutation), single agent
# Method: as §1
# [7] = tested on: LS411N; assay: as above; details: Homo sapiens, LS-411N, single agent
# Method: as §1
# [8] = tested on: OUMS-23; assay: as above; details: OUMS-23 (PTEN loss), single agent
# Method: as §1
# [9] = tested on: MAPK and PIK3C signaling in SK-MEL-5 cells; assay: Western analysis of phosphorylated MEK1/2, ERK1/2 and AKT
# Method: (§2) FIG. 4—The effect on signaling of combining the Compound of Formula (I) with the FGFR inhibitor Compound H and the FGFR ligand FGF2 in two BRAFV600E mutant melanoma-derived cell lines in vitro. Shown is western analysis of both phosphorylated and total AKT, ERK1/2, and MEK1/2 proteins isolated from (A) […] and (B) SK-MEL-5 cells following treatment with the Compound of Formula (I) (100 nM), FGF2 (100 ng/ml), and Compound H (1 uM). Cells were treated for 2 and 24 hours with agents singly and in combination as discussed in Example 5.
# (§3) For Western analysis, cells were plated in 6-well (Costar, catalog number 3506) plates at a density of 5×10^5 cells per well in 2.0 ml of complete culture medium. Twelve to 24 hrs after plating, cells were treated with the various compounds, and in all experiments the Compound of Formula (I), Compound H, and FGF2 were used at final concentrations of 100 nM, 1.0 uM, and 100 ng/ml, respectively. Cells were harvested 2, and 24 hrs following the addition of compound in freshly prepared cell lysis buffer (Cell Signaling Technology Catalog number 9803); supplemented with both phosphatase (PhosStop, Roche Catalog number 04906845001) and protease inhibitors (Roche, catalog number 11697498001). Proteins from cell lysates were separated by electrophoresis though a NuPAGE 4-12% Bis-Tis midi gel (Novex, catalog number WG1402BX10), transferred to nitrocellulose membranes, which were subsequently incubated with antibodies from Cell Signaling Technology (Danvers, Mass., USA) recognizing p-AKT (S473, Catalog number 4058), total AKT (Catalog number 2920), p-ERK1/2 (T202/Y204, catalog number 9101), total ERK1/2 (catalog number 9107), p-MEK1/2 (S217/221, catalog number 9121) and β-actin (Ambion, catalog number AM4302). Western blots were visualized following incubation with IRDye 680RD Goat anti-Rabbit IgG (Li-Cor, Catalog number 926-68071) and IRDye 800 CW Goat anti-Mouse IgG (Li-Cor, Catalog number 926-32210) and scanning with an Odyssey Infrared Imager System (Li-Cor, Lincoln, Nebr., USA).
# (§4) To investigate whether either restored MAPK or activated PIK3C signaling might underlie FGF2-mediated rescue the effects of FGF2 on MAPK and PIK3C signaling were examined via western-blot analysis of phosphorylated MEK1/2 (MAP2K1/2), ERK1/2 (MAPK1/2) and AKT1/2/3.
# [10] = tested on: MAPK and PIK3C signaling in COLO 741 cells; assay: as above; details: for Phosphorylated levels of AKT: 100 nM
# Method: as §2, §3, §4
structure (smiles),measurement,setting,value
COC(=O)N[C@@H](C)CNc1nccc(-c2cn(C(C)C)nc2-c2cc(Cl)cc(NS(C)(=O)=O)c2F)n1 [Compound of Formula (I)],IC50,[1],0.005 µM
same,IC50,[2],0.235 µM
same,IC50,[3],0.049 µM
same,IC50,[4],0.03 µM
same,IC50,[5],> 2.7 µM
same,IC50,[6],1.97 µM
same,IC50,[7],0.018 µM
same,IC50,[8],> 2.7 µM
same,MAPK signaling (phosphorylated MEK and ERK levels),"[9]; SK-MEL-5, 2 and 24 hours, no FGF2, Formula (I) 100 nM, Compound H 1.0 uM",marked suppression of MAPK signaling
same,Phosphorylated levels of AKT,"[9]; SK-MEL-5, 2 hours, 100 nM",unaffected
same,levels of phosphorylated MEK and ERK,"[9]; SK-MEL-5, with FGF2 100 ng/ml, 24 hrs","largely, although not completely, restored"
same,changes in signaling relative to Compound of Formula (I) alone,"[9]; SK-MEL-5, with FGF2 100 ng/ml, two hours",minimal changes
same,MAPK signaling (phosphorylated MEK and ERK levels),"[10]; COLO 741, 2 and 24 hours, no FGF2, Formula (I) 100 nM, Compound H 1.0 uM",marked suppression of MAPK signaling
same,Phosphorylated levels of AKT,"[10]; COLO 741, 2 hours",unaffected
same,Phosphorylated levels of AKT,"[10]; COLO 741, 24 hrs",modest decreases
same,levels of phosphorylated MEK and ERK,"[10]; COLO 741, with FGF2 100 ng/ml, 24 hrs","largely, although not completely, restored"
same,changes in signaling relative to Compound of Formula (I) alone,"[10]; COLO 741, with FGF2 100 ng/ml, two hours",minimal changes
